# According to ChEMBL document CHEMBL1142900, “Biological profile of new apoptotic agents based on 2,4-pyrido[2,3-d]pyrimidine derivatives” (Bioorg Med Chem, 2007):
# Active and inactive are the calls of the source. The rule behind the calls is not given here.
# What was measured:
# [1] = system: HT-29; assay: Growth inhibition of human HT29 cells by neutral red assay; type: functional, cell-based
# [2] = system: T-24; assay: Growth inhibition of human T24 cells by neutral red assay; type: functional, cell-based
# [3] = system: MDA-MB-231; assay: Growth inhibition of human MDA-MB-231 cells by neutral red assay; type: functional, cell-based
# [4] = Growth inhibition of human HTB26 cells by neutral red assay; type: functional, cell-based
# [5] = system: T-24; assay: Effect on apoptosis in T24 cells assessed as increase in caspase 3 activation after 14 hrs relative to control by flow cytometry; type: functional, cell-based; conditions: Homo sapiens
# [6] = system: T-24; assay: Effect on apoptosis in T24 cells assessed as increase in caspase 3 activation after 24 hrs relative to control by flow cytometry; type: functional, cell-based; conditions: Homo sapiens
# [7] = system: T-24; assay: Effect on apoptosis in T24 cells assessed as increase in caspase 3 activation after 48 hrs relative to control by flow cytometry; type: functional, cell-based; conditions: Homo sapiens
# [8] = system: HT-29; assay: Effect on apoptosis in HT29 cells assessed as increase in caspase 3 activation after 14 hrs relative to control by flow cytometry; type: functional, cell-based; conditions: Homo sapiens
# [9] = system: HT-29; assay: Effect on apoptosis in HT29 cells assessed as increase in caspase 3 activation after 24 hrs relative to control by flow cytometry; type: functional, cell-based; conditions: Homo sapiens
# [10] = system: HT-29; assay: Effect on apoptosis in HT29 cells assessed as increase in caspase 3 activation after 48 hrs relative to control by flow cytometry; type: functional, cell-based; conditions: Homo sapiens
# [11] = target: T1, Caspase-3 (Homo sapiens) (UniProt P42574); assay: Effect on MDA-MB-231 cell lysate caspase 3 activity after 14 hrs relative to control by substrate assay; type: cell-based
# T1 sequence (whole entry): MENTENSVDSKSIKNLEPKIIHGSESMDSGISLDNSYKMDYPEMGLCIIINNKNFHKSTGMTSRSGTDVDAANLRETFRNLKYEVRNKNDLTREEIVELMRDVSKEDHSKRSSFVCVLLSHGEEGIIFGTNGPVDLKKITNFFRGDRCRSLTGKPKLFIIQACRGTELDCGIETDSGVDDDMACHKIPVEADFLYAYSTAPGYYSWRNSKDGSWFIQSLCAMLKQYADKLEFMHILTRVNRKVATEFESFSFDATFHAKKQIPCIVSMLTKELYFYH
# [12] = target: T1, Caspase-3 (Homo sapiens); assay: Effect on MDA-MB-231 cell lysate caspase 3 activity after 24 hrs relative to control by substrate assay; type: cell-based
# [13] = target: T1, Caspase-3 (Homo sapiens); assay: Effect on MDA-MB-231 cell lysate caspase 3 activity after 48 hrs relative to control by substrate assay; type: cell-based
# [14] = system: MDA-MB-231; assay: Increase in cell death of MDA-MB-231 cells; type: functional, cell-based; conditions: Homo sapiens, TDE = time-dependent effect
# [15] = system: T-24; assay: Increase in cell death of T24 cells; type: functional, cell-based; conditions: Homo sapiens, TDE = time-dependent effect
# [16] = system: HT-29; assay: Increase in cell death of HT29 cells; type: functional, cell-based; conditions: Homo sapiens, TDE = time-dependent effect
# [17] = Cytotoxicity against CRL8799 cells; type: cell-based; conditions: human
# [18] = Cytotoxicity against CRL11233 cells; type: cell-based; conditions: human
# [19] = system: HT-29; assay: Cell cycle arrest in HT29 cells by accumulation at G1 phase at 8.9 uM after 8 hrs; type: functional, Homo sapiens
# [20] = system: HT-29; assay: Cell cycle arrest in HT29 cells by accumulation at G1 phase at 8.9 uM after 10 hrs; type: functional, Homo sapiens
# [21] = system: HT-29; assay: Cell cycle arrest in HT29 cells by accumulation at G1 phase at 8.9 uM after 12 hrs; type: functional, Homo sapiens
# [22] = system: HT-29; assay: Cell cycle arrest in HT29 cells by accumulation at S phase at 8.9 uM after 8 hrs; type: functional, Homo sapiens
# [23] = system: HT-29; assay: Cell cycle arrest in HT29 cells by accumulation at S phase at 8.9 uM after 10 hrs; type: functional, Homo sapiens
# [24] = system: HT-29; assay: Cell cycle arrest in HT29 cells by accumulation at S phase at 8.9 uM after 12 hrs; type: functional, Homo sapiens
# [25] = system: HT-29; assay: Cell cycle arrest in HT29 cells by accumulation at G2 phase at 8.9 uM after 8 hrs; type: functional, Homo sapiens
# [26] = system: HT-29; assay: Cell cycle arrest in HT29 cells by accumulation at G2 phase at 8.9 uM after 10 hrs; type: functional, Homo sapiens
# [27] = system: HT-29; assay: Cell cycle arrest in HT29 cells by accumulation at G2 phase at 8.9 uM after 12 hrs; type: functional, Homo sapiens
# [28] = system: HT-29; assay: Cell cycle arrest in HT29 cells by accumulation at subG1 phase at 8.9 uM after 8 hrs; type: functional, Homo sapiens
# [29] = system: HT-29; assay: Cell cycle arrest in HT29 cells by accumulation at subG1 phase at 8.9 uM after 10 hrs; type: functional, Homo sapiens
# [30] = system: HT-29; assay: Cell cycle arrest in HT29 cells by accumulation at subG1 phase at 8.9 uM after 12 hrs; type: functional, Homo sapiens
# [31] = system: T-24; assay: Cell cycle arrest in T24 cells by accumulation at G1 phase at 5 uM after 8 hrs; type: functional, Homo sapiens
# [32] = system: T-24; assay: Cell cycle arrest in T24 cells by accumulation at G1 phase at 5 uM after 10 hrs; type: functional, Homo sapiens
# [33] = system: T-24; assay: Cell cycle arrest in T24 cells by accumulation at G1 phase at 5 uM after 12 hrs; type: functional, Homo sapiens
# [34] = system: T-24; assay: Cell cycle arrest in T24 cells by accumulation at S phase at 5 uM after 8 hrs; type: functional, Homo sapiens
# [35] = system: T-24; assay: Cell cycle arrest in T24 cells by accumulation at S phase at 5 uM after 10 hrs; type: functional, Homo sapiens
# [36] = system: T-24; assay: Cell cycle arrest in T24 cells by accumulation at S phase at 5 uM after 12 hrs; type: functional, Homo sapiens
# [37] = system: T-24; assay: Cell cycle arrest in T24 cells by accumulation at G2 phase at 5 uM after 8 hrs; type: functional, Homo sapiens
# [38] = system: T-24; assay: Cell cycle arrest in T24 cells by accumulation at G2 phase at 5 uM after 10 hrs; type: functional, Homo sapiens
# [39] = system: T-24; assay: Cell cycle arrest in T24 cells by accumulation at G2 phase at 5 uM after 12 hrs; type: functional, Homo sapiens
# [40] = system: T-24; assay: Cell cycle arrest in T24 cells by accumulation at subG1 phase at 5 uM after 8 hrs; type: functional, Homo sapiens
# [41] = system: T-24; assay: Cell cycle arrest in T24 cells by accumulation at subG1 phase at 5 uM after 10 hrs; type: functional, Homo sapiens
# [42] = system: T-24; assay: Cell cycle arrest in T24 cells by accumulation at subG1 phase at 5 uM after 12 hrs; type: functional, Homo sapiens
# [43] = system: HT-29; assay: Cell cycle arrest in HT29 cells by accumulation at G1 phase after 24 hrs; type: functional, Homo sapiens
# [44] = system: HT-29; assay: Cell cycle arrest in HT29 cells by accumulation at S phase after 24 hrs; type: functional, Homo sapiens
# [45] = system: HT-29; assay: Cell cycle arrest in HT29 cells by accumulation at G2/M phase after 24 hrs at 0.89 uM; type: functional, Homo sapiens
# [46] = system: HT-29; assay: Cell cycle arrest in HT29 cells by accumulation at subG1 phase after 24 hrs; type: functional, Homo sapiens
# [47] = system: T-24; assay: Cell cycle arrest in T24 cells by accumulation at G1 phase after 24 hrs; type: functional, Homo sapiens
# [48] = system: T-24; assay: Cell cycle arrest in T24 cells by accumulation at S phase after 24 hrs; type: functional, Homo sapiens
# [49] = system: T-24; assay: Cell cycle arrest in T24 cells by accumulation at G2/M phase after 24 hrs at 0.6 uM; type: functional, Homo sapiens
# [50] = system: T-24; assay: Cell cycle arrest in T24 cells by accumulation at subG1 phase after 24 hrs; type: functional, Homo sapiens
# [51] = system: HT-29; assay: Effect on apoptosis in HT29 cells assessed as DNA fragmentation after 8 hrs; type: functional, cell-based; conditions: Homo sapiens
# [52] = system: T-24; assay: Effect on apoptosis in T24 cells assessed as DNA fragmentation after 8 hrs; type: functional, cell-based; conditions: Homo sapiens
structure (smiles),measurement,setting,value
"CCC1(O)C(=O)OCc2c1cc1n(c2=O)Cc2cc3ccccc3nc2-1 (single isomer, unassigned) [CAMPTOTHECIN]",IC50,[1],14 nM
same,IC50,[2],6 nM
same,IC50,[3],291 nM
COc1ccc(CNc2nc(NCc3ccc(OC)cc3)c3cccnc3n2)cc1,IC50,[1],8900 nM
same,IC50,[2],5000 nM
same,IC50,[4],1500 nM
same,Activity,[5],Active
same,Activity,[6],Active
same,Activity,[7],Active
same,Activity,[8],Active
same,Activity,[9],Active
same,Activity,[10],Active
same,Activity,[11],inactive
same,Activity,[12],inactive
same,Activity,[13],inactive
same,Activity,[14],tde
same,Activity,[15],tde
same,Activity,[16],tde
same,Activity,[17],Non-toxic
same,Activity,[18],Non-toxic
same,Activity,[19],35%
same,Activity,[20],22%
same,Activity,[21],17%
same,Activity,[22],19%
same,Activity,[23],17%
same,Activity,[24],17%
same,Activity,[25],38%
same,Activity,[26],36%
same,Activity,[27],33%
same,Activity,[28],8%
same,Activity,[29],25%
same,Activity,[30],34%
same,Activity,[31],36%
same,Activity,[32],28%
same,Activity,[33],26%
same,Activity,[34],13%
same,Activity,[35],13%
same,Activity,[36],10%
same,Activity,[37],43%
same,Activity,[38],40%
same,Activity,[39],36%
same,Activity,[40],7%
same,Activity,[41],18%
same,Activity,[42],28%
same,Activity,[43],30%
same,Activity,[44],11%
same,Activity,[45],52%
same,Activity,[46],7%
same,Activity,[47],42%
same,Activity,[48],13%
same,Activity,[49],38%
same,Activity,[50],6%
same,Activity,[51],Active
same,Activity,[52],Active
